In article PMC9436819 (JACC: Basic to Translational Science, 2022):
Entries after “also recorded” stand apart in the source; their conditions may differ.

How the values were obtained:
healthy adults [1] = experiment: Treatment-emergent adverse events, multiple ascending dose (MAD) cohorts; type: in vivo, human; details: n = 6
Procedure: The MAD cohorts also used a randomized, double-blind, placebo-controlled, sequential design. […] Safety was assessed by the incidence of adverse events (AEs) and by the incidence of reduced LVEF. Treatment-emergent AEs (TEAEs) were defined as AEs that began or increased after study drug administration. All AEs were coded using the Medical Dictionary for Regulatory Activities, version 21.1, and graded using the National Cancer Institute Common Terminology Criteria for AEs (version 4.03) 5-point severity scale.[18] Each AE was judged as either related or unrelated to the study drug by the treating investigator. Clinical laboratory tests were obtained at regular intervals in all cohorts.

[2] = Plasma pharmacokinetics in the CYP2D6 poor metabolizer cohort; type: in vivo, human
Procedure: CYP2D6 genotypes were determined at screening for all study participants; those identified as CYP2D6-PMs were excluded from the SAD and MAD cohorts but were invited to participate in the CYP2D6-PM cohort. The first individual in the CYP2D6-PM cohort was dosed after the SAD 25-mg cohort (Figure 1). […] Nine participants were randomized (7:2), with a sentinel dosing group consisting of the first 2 participants treated. For all study groups, blood samples for PK assessment were obtained predose, up to 12 times daily on day 1, and then at regular intervals throughout the study (see Supplemental Appendix for details). Standard noncompartmental methods were used to calculate PK parameters using Phoenix WinNonlin, version 7.0; actual sample collection times were used.

rat and dog = details: cited from earlier work
healthy adults [3] = experiment: Overall safety and tolerability (AEs, ECG, vital signs, laboratory tests), all cohorts; type: in vivo, human
Procedure: Safety was assessed by the incidence of adverse events (AEs) and by the incidence of reduced LVEF. Treatment-emergent AEs (TEAEs) were defined as AEs that began or increased after study drug administration. All AEs were coded using the Medical Dictionary for Regulatory Activities, version 21.1, and graded using the National Cancer Institute Common Terminology Criteria for AEs (version 4.03) 5-point severity scale.[18] Each AE was judged as either related or unrelated to the study drug by the treating investigator. Clinical laboratory tests were obtained at regular intervals in all cohorts.
For safety monitoring, participants in all cohorts had periodic echocardiograms, which were assessed by a cardiologist. In the SAD and MAD cohorts, echocardiograms were also reviewed by an echocardiography core laboratory for PD assessments, as described in the section on echocardiographic methods. In addition, participants in all cohorts were monitored with continuous 12-lead ECG recording using Holter monitors. For safety monitoring, a single 12-lead ECG was extracted at screening, predose, and periodically throughout follow-up and interpreted by the investigator. In the SAD, MAD, and CYP2D6-PM cohorts, cardiodynamic ECGs (triplicate 10-second, 12-lead ECG recordings) were obtained before the corresponding PK blood sample (see the Supplemental Appendix for full details on blood sampling), and ECG intervals were quantitated by qualified readers.

[4] = CYP2D6 poor metabolizers, single 10 mg, arithmetic mean ± SD, n = 7
[5] = human, plasma, oral, CYP2D6 poor metabolizers, single 10 mg, geometric mean (geometric CV%), n = 7

## CCc1nc(-c2ccc3c(c2)CC[C@H]3NC(=O)c2cnn(C)c2)no1 [Aficamten]
Healthy adults [1]; MAD 5 mg qd × 14 d
  Participants with any TEAE: 1 (17) n (%)
  TEAE: Chapped lips: 1 (17) n (%)
  TEAE: Cough: 1 (17) n (%)
  TEAE: Salivary hypersecretion: 1 (17) n (%)
Healthy adults [1]; MAD 10 mg qd × 14 d
  Participants with any TEAE: 2 (33) n (%)
  TEAE: Headache: 1 (17) n (%)
  TEAE: Upper respiratory tract infection: 1 (17) n (%)
[2]; [4]
  CL/F: 3.6 ± 1.4 L/h
  t½: 110 h
[2]; human, plasma, oral, 10 mg, CYP2D6 poor metabolizers, single 10 mg, arithmetic mean ± SD, n = 7, read-out: t½ (converted)
  half-life: 110 ± 47.3 h
[2]; human, plasma, oral, CYP2D6 poor metabolizers, single 10 mg, arithmetic mean ± SD, n = 7, read-out: Vz/F
  Vd/F: 506 ± 84.4 L
[2]; [5]
  AUC(0-inf): 2970 ng·h/mL
  Cmax: 57.3 ng/mL
[2]; human, plasma, oral, CYP2D6 poor metabolizers, single 10 mg, geometric mean (geometric CV%), n = 7, read-out: AUC24
  AUC: 495 ng·h/mL
[2]; human, plasma, oral, CYP2D6 poor metabolizers, single 10 mg, median (range), n = 7
  Tmax: 1 h
[2]; single 10 mg
  Effect of CYP2D6 poor metabolizer phenotype on the PK: not affected; also recorded: no effect
[2]; single 10-mg dose
  Plasma mean concentrations in CYP2D6 poor metabolizers versus extensive metabolizers: Modestly lower
Rat and dog; comparison in rats and dogs
  Exposure-response relationship shallower than that of mavacamten: roughly 3 fold
Rat and dog; rat and dog
  Ventricular contractility: reduces ventricular contractility in a dose- and exposure-dependent manner
Healthy adults [3]; all cohorts
  Discontinuation of the study because of AEs: no participants discontinued
  Serious AEs: no serious AEs; also recorded: without serious AEs
  Vital signs at postdose timepoints: within normal limits
Healthy adults [3]; all cohorts, exception of 2 individuals with baseline QTcF ≥440 ms whose QTcF increased by 3 and 13 ms
  QTcF at baseline or any assessment during the dosing interval: ≤ 450 ms
Healthy adults [3]; all cohorts, only exception was 1 participant in the SAD placebo group
  Increase in QTcF interval: ≤ 30 ms
Healthy adults [3]; during the study
  Serum chemistry, hematology, or urinalysis findings: No clinically significant
Healthy adults [3]; following single or multiple doses
  Effect on the QT interval (cardiodynamic assessments): no evidence of an effect
Healthy adults [3]; single doses of ≤50 mg or daily dosing of ≤10 mg for 14 or 17 days
  Tolerability: safe and well tolerated
Healthy adults [3]; single-dose and multiple-dose administration
  Severity of observed TEAEs: generally mild (grade 1)
